Measurements from patent publication US20230279020A9, “CARM1 INHIBITORS AND USES THEREOF” (Epizyme, Inc., priority 2013, published 2023).

Target: Human CARM1 (PRMT4) (Homo sapiens (Human), UniProt Q86X55)
Assay: CARM1 enzyme assay on peptide substrate (3H-SAM Flashplate)
Details: Biochemical potencies, classification codes; read-out: Biochem IC50
From the text: S-adenosylmethionine (SAM), S-adenosylhomocysteine (SAH), bicine, Tween20, dimethylsulfoxide (DMSO), bovine skin gelatin (BSG), sodium butyrate and Tris(2-carboxyethyl)phosphine hydrochloride solution (TCEP) were purchased from Sigma-Aldrich at the highest level of purity possible. ^3H-SAM was purchase from American Radiolabeled Chemicals with a specific activity of 80 Ci/mmol. 384-well streptavidin Flashplates were purchased from PerkinElmer.
Peptide representative of human histone H3 residues 16-30 was synthesized with an N-terminal linker-affinity tag motif and a C-terminal amide cap by 21st Century Biochemicals. […] The sequence was Biot-Ahx-[…]-amide and contained a monomethylated arginine at position 26 (SEQ ID NO.:1).
The gene sequence encoding isoform1 containing a deletion of amino acids 539-561 was amplified subsequently and subcloned into pFastBacMam (Viva Biotech).
Recombinant baculovirus were generated according to Bac-to-Bac kit instructions (Life Technologies). Protein over-expression was accomplished by infecting exponentially growing HEK 293F cell culture at 1.3×10^6cell/ml with virus (MOI=10) in the presence of 8 mM sodium butyrate. Infections were carried out at 37° C. for 48 hours, harvested by centrifugation, and stored at −80° C. for purification.
Expressed full-length human Flag- and His-tagged CARM1 protein was purified from cell paste by anti-flag M2 affinity chromatography with resin equilibrated with buffer containing 20 mM Tris, 150 mM NaCl, 5% glycerol, pH 7.8. Column was washed with 500 mM NaCl in buffer A and Flag-CARM1-His was eluted with 200 ug/ml FLAG peptide in buffer A. Pooled fractions were dialyzed in 20 mM Tris, 150 mM NaCl, 5% glycerol and 1 mM DTT, pH 7.8.
The assays were all performed in a buffer consisting of 20 mM Bicine (pH=7.6), 1 mM TCEP, 0.005% BSG, and 0.002% Tween 20, prepared on the day of use. Compounds in 100% DMSO (1 ul) were spotted into a polypropylene 384-well V-bottom plates (Greiner) using a Platemate Plus outfitted with a 384-channel head (Thermo Scientific). DMSO (1 ul) was added to Columns 11, 12, 23, 24, rows A-H for the maximum signal control and 1 ul of SAH, a known product and inhibitor of CARM1, was added to columns 11, 12, 23, 24, rows I-P for the minimum signal control. A cocktail (40 ul) containing the CARM1 enzyme was added by Multidrop Combi (Thermo-Fisher). The compounds were allowed to incubate with CARM1 for 30 min at room temperature, then a cocktail (10 ul) containing ^3H-SAM and peptide was added to initiate the reaction (final volume=51 ul). The final concentrations of the components were as follows: CARM1 was 0.25 nM, ^3H-SAM was 30 nM, peptide was 250 nM, SAH in the minimum signal control wells was 1 mM, and the DMSO concentration was 2%. The assays were stopped by the addition of non-radiolabeled SAM (10 ul) to a final concentration of 300 uM, which dilutes the ^3H-SAM to a level where its incorporation into the peptide substrate is no longer detectable. 50 ul of the reaction in the 384-well polypropylene plate was then transferred to a 384-well Flashplate and the biotinylated peptides were allowed to bind to the streptavidin surface for at least 1 hour before being washed once with 0.1% Tween20 in a Biotek ELx405 plate washer. The plates were then read in a PerkinElmer TopCount plate reader to measure the quantity of ^3H-labeled peptide bound to the Flashplate surface, measured as disintegrations per minute (dpm) or alternatively, referred to as counts per minute (cpm).
where dpm=disintegrations per minute, cmpd=signal in assay well, and min and max are the respective minimum and maximum signal controls.
where top and bottom are the normally allowed to float, but may be fixed at 100 or 0 respectively in a 3-parameter fit. The Hill Coefficient normally allowed to float but may also be fixed at 1 in a 3-parameter fit. Y is the % inhibition and X is the compound concentration.

Chain of Human CARM1 (PRMT4) (Q86X55 other isoform, or with tags, fused parts or gaps isoform Q86X55-1): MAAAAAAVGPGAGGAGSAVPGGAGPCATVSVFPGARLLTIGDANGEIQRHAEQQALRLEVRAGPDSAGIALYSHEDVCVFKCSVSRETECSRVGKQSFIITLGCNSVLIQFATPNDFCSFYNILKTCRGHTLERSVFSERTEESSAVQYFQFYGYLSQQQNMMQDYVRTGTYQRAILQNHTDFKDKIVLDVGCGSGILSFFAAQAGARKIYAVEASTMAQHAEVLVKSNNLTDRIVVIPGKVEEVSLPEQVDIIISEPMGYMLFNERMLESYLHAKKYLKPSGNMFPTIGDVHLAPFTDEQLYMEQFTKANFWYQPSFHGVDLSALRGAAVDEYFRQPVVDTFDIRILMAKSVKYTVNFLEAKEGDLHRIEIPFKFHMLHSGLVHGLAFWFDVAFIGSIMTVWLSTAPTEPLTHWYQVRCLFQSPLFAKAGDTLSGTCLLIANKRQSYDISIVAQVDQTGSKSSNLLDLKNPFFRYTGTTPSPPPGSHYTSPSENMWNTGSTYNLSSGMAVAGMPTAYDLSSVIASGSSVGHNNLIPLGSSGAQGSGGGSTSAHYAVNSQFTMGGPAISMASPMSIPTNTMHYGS

| IC50 [nM] | Compound |
| --- | --- |
| < 100 | CCN1CCN(c2cc(-c3c(C)noc3C)nc(-c3cccc(OCC(O)CNC)c3)n2)CC1 (centres unmarked) [Example 20-1a] |
| < 100 | CNCC(O)COc1cccc(-c2nc(-c3c(C)noc3C)c(C)c(N(C)[C@H]3C[C@@](C)(OC)C3)n2)c1 (some centres unmarked) [Example 20-3] |
| < 100 | CNCC(O)COc1cccc(-c2nc(Nc3cncnc3)cc(-c3c(C)noc3C)n2)c1 (centres unmarked) [Example 21-1a] |
| < 100 | CNCC(O)COc1cc(Cl)cc(-c2nc(NC3CCN(CC(F)F)CC3)c(C)c(-c3c(C)noc3C)n2)c1 (centres unmarked) [Example 21-3] |
| < 100 | CNCC(O)COc1cccc(-c2nc(NC(C)C)cc(N(C)C3CCOCC3)n2)c1 (centres unmarked) [Example 22-1] |
| < 100 | CNCC(O)COc1cc(Cl)cc(-c2nc(NC3CCN(C4CC4)CC3)c(C)c(-c3c(C)noc3C)n2)c1 (centres unmarked) [Example 22-3] |
| < 100 | CNCC(O)COc1cccc(-c2nc(-c3cccc(C#N)c3)cc(N(C)CCC#N)n2)c1 (centres unmarked) [Example 24-1] |
| < 100 | CCOC(=O)N1CCOC[C@H]1CNc1nc(-c2cc(OC[C@@H](O)CNC)ccc2Cl)nc(-c2c(C)noc2C)c1C [Example 24-3] |
| < 100 | CNCC(O)COc1cc(OC)cc(-c2nc(C3CC3)cc(N(C)C3CCOCC3)n2)c1 (centres unmarked) [Example 25-1] |
| < 100 | CCOC(=O)N1CCOC[C@H]1CNc1nc(-c2cc(OC[C@H](O)CNC)ccc2Cl)nc(-c2c(C)noc2C)c1C [Example 25-3] |
| < 100 | CNCC(O)COc1cccc(-c2nc(N[C@H]3CCOC3)c(C)c(N3CCOCC3)n2)c1 (some centres unmarked) [Example 26-1] |
| < 100 | CNC[C@H](O)COc1ccc(F)c(-c2nc(NC3CCN(C(=O)OC)CC3)c(C)c(-c3c(C)noc3C)n2)c1 [Example 26-3] |
| < 100 | CNCC(O)COc1cccc(-c2nc(NC)cc(-c3c(C)noc3C)n2)c1 (centres unmarked) [Example 27-1a] |
| < 100 | CCOC(=O)N1CCCCC1CNc1nc(-c2cc(OC[C@@H](O)CNC)ccc2Cl)nc(-c2c(C)noc2C)c1C (some centres unmarked) [Example 27-3] |
| < 100 | CCOC(=O)N1CCN(c2cc(-c3c(C)noc3C)nc(-c3cccc(OCC(O)CNC)c3)n2)CC1 (centres unmarked) [Example 28-1a] |
| < 100 | CCOC(=O)N1CCCCC1CNc1nc(-c2cc(OC[C@H](O)CNC)ccc2Cl)nc(-c2c(C)noc2C)c1C (some centres unmarked) [Example 28-3] |
| < 100 | CNCC(O)COc1cccc(-c2nc(NCCOC)cc(-c3cc4ccccc4o3)n2)c1 (centres unmarked) [Example 29-1] |
| < 100 | CNCC(O)COc1cccc(-c2nc(-c3c(C)noc3C)cc(N3CCNC(C(=O)O)C3)n2)c1 (centres unmarked) [Example 29-1a] |
| < 100 | CNCC(O)COc1ccc(Cl)c(-c2nc(NC3CCOCC3)c(C)c(-c3c(C)noc3C)n2)c1 (centres unmarked) [Example 29-3] |
| < 100 | CNCC(O)COc1cccc(-c2nc(-c3c(C)noc3C)cc(N3CCN(C4CC4)CC3)n2)c1 (centres unmarked) [Example 30-1a] |
| < 100 | CNCC(O)COc1ccc(Cl)c(-c2nc(NCC3CCOC3)c(C)c(-c3c(C)noc3C)n2)c1 (centres unmarked) [Example 30-3] |
| < 100 | CNCC(O)COc1cccc(-c2nc(NC3CCOC3)cc(-c3c(C)noc3C)n2)c1 (centres unmarked) [Example 31-1a] |
| < 100 | CNCC(O)COc1ccc(Cl)c(-c2nc(NCC3CCCCO3)c(C)c(-c3c(C)noc3C)n2)c1 (centres unmarked) [Example 31-3] |
| < 100 | CNCC(O)COc1cccc(-c2nc(-c3cccnc3)cc(N(C)C3CCOCC3)n2)c1 (centres unmarked) [Example 32-1] |
| < 100 | CNCC(O)COc1cccc(-c2nc(N[C@H]3CC[C@H](O)CC3)cc(-c3c(C)noc3C)n2)c1 (some centres unmarked) [Example 32-1a] |
| < 100 | CNC[C@@H](O)COc1cccc(-c2nc(NC3CCN(C(=O)OC)C(C)C3)c(C)c(-c3c(C)noc3C)n2)c1 (some centres unmarked) [Example 32-3] |
| < 100 | CNCC(O)COc1cccc(-c2nc(NC3CCOCC3)cc(-c3c(C)noc3C)n2)c1 (centres unmarked) [Example 33-1] |

| IC50 [nM] | Compound |
| --- | --- |
| < 100 | CNCC(O)COc1cccc(-c2nc(N[C@H]3CC[C@@H](O)CC3)cc(-c3c(C)noc3C)n2)c1 (some centres unmarked) [Example 33-1a] |
| < 100 | CNC[C@H](O)COc1cccc(-c2nc(NC3CCN(C(=O)OC)C(C)C3)c(C)c(-c3c(C)noc3C)n2)c1 (some centres unmarked) [Example 33-3] |
| < 100 | CNCC(O)COc1cccc(-c2nc(NCCOC)cc(-c3cnn(CC(C)C)c3)n2)c1 (centres unmarked) [Example 34-1] |
| < 100 | CNCC(O)COc1cccc(-c2nc(-c3c(C)noc3C)c(C)c(N(C)C3CCOCC3)n2)c1 (centres unmarked) [Example 34-1a] |
| < 100 | CNCC(O)COc1cccc(-c2nc(-c3c(C)noc3C)c(C)c(N3CCn4ccnc4C3)n2)c1 (centres unmarked) [Example 34-3] |
| < 100 | CNCC(O)COc1cccc(-c2nc(-c3c(C)noc3C)cc(N3CCNC(C)C3)n2)c1 (centres unmarked) [Example 35-1a] |
| < 100 | CNCC(O)COc1cccc(-c2nc(-c3c(C)noc3C)c(C)c(N3Cc4cccnc4C3)n2)c1 (centres unmarked) [Example 35-3] |
| < 100 | CNCC(O)COc1cccc(-c2nc(N3CCOCC3)cc(N(C)C3CCOCC3)n2)c1 (centres unmarked) [Example 36-1] |
| < 100 | CNCC(O)COc1cccc(-c2nc(-c3c(C)noc3C)cc(N3CCNC(C)(C)C3)n2)c1 (centres unmarked) [Example 36-1a] |
| < 100 | CNCC(O)COc1ccc(Cl)c(-c2nc(O[C@H]3CCN(C(=O)OC)[C@@H](C)C3)c(C)c(-c3c(C)noc3C)n2)c1 (some centres unmarked) [Example 36-3] |
| < 100 | CNCC(O)COc1cccc(-c2nc(N3CCOCC3)c(C)c(N(C)[C@H]3CCOC3)n2)c1 (some centres unmarked) [Example 37-1] |
| < 100 | CNCC(O)COc1ccc(Cl)c(-c2nc(NC3CC4(CCN(C(=O)OC)CC4)C3)c(C)c(-c3c(C)noc3C)n2)c1 (centres unmarked) [Example 37-3] |
| < 100 | CNCC(O)COc1cccc(-c2nc(-c3c(C)noc3C)cc(N3CCN(C(C)=O)[C@@H](C)C3)n2)c1 (some centres unmarked) [Example 38-1a] |
| < 100 | CNCC(O)COc1ccc(Cl)c(-c2nc(NC3CC(O)(C(F)(F)F)C3)c(C)c(-c3c(C)noc3C)n2)c1 (centres unmarked) [Example 38-3] |
| < 100 | CNCC(O)COc1cccc(-c2nc(-c3c(C)noc3C)cc(N3CCN(C(C)=O)C[C@H]3C)n2)c1 (some centres unmarked) [Example 39-1a] |
| < 100 | CNCC(O)COc1ccc(Cl)c(-c2nc(N[C@H]3CCC[C@@H](O)C3)c(C)c(-c3c(C)noc3C)n2)c1 (some centres unmarked) [Example 39-3] |
| < 100 | CNCC(O)COc1cccc(-c2nc(-c3c(C)noc3C)cc(N3CCN[C@@H](C)C3)n2)c1 (some centres unmarked) [Example 40-1a] |
| < 100 | CNC[C@@H](O)COc1ccc(F)c(-c2nc(NC3CCN(C(=O)OC)CC3)c(C)c(-c3c(C)noc3C)n2)c1 [Example 40-3] |
| < 100 | CNCC(O)COc1cccc(-c2nc(-c3cnn(CC(C)C)c3)cc(N(C)CCC#N)n2)c1 (centres unmarked) [Example 41-1] |
| < 100 | CNCC(O)COc1cccc(-c2nc(N[C@H]3C[C@@H](O)C3)cc(-c3c(C)noc3C)n2)c1 (some centres unmarked) [Example 41-1a] |
| < 100 | CNCC(O)COc1ccc(Cl)c(-c2nc(NCC3COCCO3)c(C)c(-c3c(C)noc3C)n2)c1 (centres unmarked) [Example 41-3] |
| < 100 | CNCC(O)COc1cccc(-c2nc(NCCCN3CCCC3=O)cc(C3=CCCC3)n2)c1 (centres unmarked) [Example 42-1] |
| < 100 | CNCC(O)COc1cccc(-c2nc(-c3c(C)noc3C)cc(N3CCC4(CC3)NC(=O)NC4=O)n2)c1 (centres unmarked) [Example 42-1a] |
| < 100 | CCOC(=O)N1CCOC[C@@H]1CNc1nc(-c2cc(OC[C@@H](O)CNC)ccc2Cl)nc(-c2c(C)noc2C)c1C [Example 42-3] |
| < 100 | CNCC(O)COc1cccc(-c2nc(N[C@H]3C[C@H](O)C3)cc(-c3c(C)noc3C)n2)c1 (some centres unmarked) [Example 43-1a] |
| < 100 | CNC[C@H](O)COc1ccc(Cl)c(-c2nc(N[C@H]3CCN(C4CC4)C[C@H]3F)c(C)c(-c3c(C)noc3C)n2)c1 [Example 43-3] |
